The target of series [1] is T1, PARP1 (Homo sapiens, UniProt P09874). To be noted: allosteric-based classification reported earlier; cited from earlier work.
Series [2] deals with T1, PARP1. In words: PARP1 enzyme inhibition assay. To be noted: for decrease in PARP1 inhibition potency compared to veliparib: relative to veliparib. Format: biochemical.
Series [3] addresses PARP1 Zn1-Zn3 ΔZn2;PARP1 WGR-CAT ΔVE (Homo sapiens?;Homo sapiens?, UniProt P09874;P09874 1-366;518-1014, del97-206|del687-688). In words: X-ray crystallography.
The target of series [4] is T2, PARP1 WT (UniProt P09874 1-1014). The experiment in a line: fluorescence polarization.
Series [5] addresses T2, PARP1 WT. In words: fluorescence polarization. This is another data set of the same source.
The target in series [6] is T2, PARP1 WT. The experiment in a line: fluorescence polarization. This is another data set of the same source.
In series [7] the target is T2, PARP1 WT. The experiment in a line: fluorescence polarization. This is another data set of the same source.
For series [8], the target named is T2, PARP1 WT. The experiment in a line: fluorescence polarization. The source holds these as a separate data set. Background: In fluorescence polarisation assays a small probe gives low polarisation when free and higher when bound to something large.
Series [9] addresses T2, PARP1 WT. In words: fluorescence polarization. This is another data set of the same source.
Series [10] deals with T2, PARP1 WT. In words: fluorescence polarization. This is another data set of the same source.
Series [11] addresses T2, PARP1 WT. In words: fluorescence polarization. This is another data set of the same source.
The target of series [12] is T2, PARP1 WT. In words: fluorescence polarization. This is another data set of the same source.
Series [13] has as its target T2, PARP1 WT. The experiment in a line: fluorescence polarization. This is another data set of the same source.
Series [14] addresses T2, PARP1 WT. The experiment in a line: fluorescence polarization. This is another data set of the same source.
The target in series [15] is T2, PARP1 WT. The experiment in a line: fluorescence polarization. The source holds these as a separate data set.
Series [16] has as its target T2, PARP1 WT. In words: fluorescence polarization. The source holds these as a separate data set.
Setting [17] is: read-out: PARP1 IC50, 10-point concentration-response curve, average of at least two independent experiments.

Read-outs that look alike come from different tables or passages of the source.

For the molecule `NC(=O)c1cccc([C@@H]2O[C@H](COP(=O)(O)OP(=O)(O)OC[C@H]3O[C@@H](n4cnc5c(N)ncnc54)[C@H](O)[C@@H]3O)[C@@H](O)[C@H]2O)c1` [BAD, benzamide adenine dinucleotide], on PARP1 [1], the “allosteric PARPi type” value is recorded as “Type I”.
For `NC(=O)c1cccc2[nH]c(-c3ccc(C(=O)N4CCN(c5ncccn5)CC4)cc3)nc12` [Compound 4, 2-(4-(4-(Pyrimidin-2-yl)piperazine-1-carbonyl)phenyl)-1H-benzo[d]imidazole-4-carboxamide], on PARP1 [2], the IC50 (commonly the concentration needed to halve the response being measured) is 11.9 nM and the “decrease in PARP1 inhibition potency compared to veliparib” value is reported as “approximately nine”.
The molecule `NC(=O)c1cccc2[nH]c(-c3cccc(C(=O)N4CCN(c5ncccn5)CC4)c3)nc12` [Compound 5, 2-(3-(4-(Pyrimidin-2-yl)piperazine-1-carbonyl)phenyl)-1H-benzo[d]imidazole-4-carboxamide] showed an IC50 against PARP1 [2] of 8.9 nM.
Regarding `NC(=O)c1cccc2[nH]c(-c3ccc(C(=O)N4CCN(c5ncc(C(=O)O)cn5)CC4)cc3)nc12` [Compound 7, Sodium 2-(4-(4-(4-carbamoyl-1H-benzo[d]imidazol-2-yl)benzoyl)piperazin-1-yl)pyrimidine-5-carboxylate], the IC50 on PARP1 [2] was over 10 nM. On PARP1 [2] (read-out: PARP1 inhibition at 10 nM), the inhibition – broadly, the change of the read-out against control, counted positive when it falls – at 0.01 µM worked out at 37%.
`NC(=O)c1cccc2[nH]c(-c3ccc(C(=O)N4CCN(c5nc6ccccc6[nH]5)CC4)cc3)nc12` [Compound 8, 2-(4-(4-(1H-Benzo[d]imidazol-2-yl)piperazine-1-carbonyl)phenyl)-1H-benzo[d]imidazole-4-carboxamide]: the IC50 against PARP1 [2] is 6.2 nM.
On the same count and under the same terms, the figure for `NC(=O)c1cccc2[nH]c(-c3cccc(C(=O)N4CCN(c5nc6ccccc6[nH]5)CC4)c3)nc12` [Compound 9, 2-(3-(4-(1H-Benzo[d]imidazol-2-yl)piperazine-1-carbonyl)phenyl)-1H-benzo[d]imidazole-4-carboxamide] is 3.9 nM; for `NC(=O)c1cccc2[nH]c(-c3ccc(C(=O)NCCc4nc5ccccc5[nH]4)cc3)nc12` [Compound 10, 2-(4-((2-(1H-Benzo[d]imidazol-2-yl)ethyl)carbamoyl)phenyl)-1H-benzo[d]imidazole-4-carboxamide] it is 3.1 nM.
As for `NC(=O)c1cccc2[nH]c(-c3cccc(C(=O)NCCc4nc5ccccc5[nH]4)c3)nc12` [Compound 11, 2-(3-((2-(1H-Benzo[d]imidazol-2-yl)ethyl)carbamoyl)phenyl)-1H-benzo[d]imidazole-4-carboxamide], on PARP1 [2], the IC50 stood at 121 nM and the “decrease in PARP1 inhibition potency compared to veliparib” value is on record as ~ 100 fold.
On to `NC(=O)c1cccc2[nH]c(-c3ccc(C(=O)N4CCn5c(nnc5C(F)(F)F)C4)cc3)nc12` [Compound 12, 2-(4-(3-(Trifluoromethyl)-5,6,7,8-tetrahydro-[1,2, 4]triazolo[4,3-a]pyrazine-7-carbonyl)phenyl)-1H-benzo[d]imidazole-4-carboxamide], for which the IC50 at PARP1 [2] (setting [17]) came out at 25.4 nM.
The same measure, in the same setting: the figure for `NC(=O)c1cccc2[nH]c(-c3cccc(C(=O)N4CCn5c(nnc5C(F)(F)F)C4)c3)nc12` [Compound 13, 2-(3-(3-(Trifluoromethyl)-5,6,7,8-tetrahydro-[1,2, 4]triazolo[4,3-a]pyrazine-7-carbonyl)phenyl)-1H-benzo[d]imidazole-4-carboxamide] is 25.4 nM.
In turn, `Cc1cc(N)c(NC(=O)c2cccc(-c3nc4c(C(N)=O)cccc4[nH]3)c2)cc1C` [Compound 14, 2-(3-((2-Amino-4,5-dimethylphenyl)carbamoyl)phenyl)-1H-benzo[d]imidazole-4-carboxamide] came in with an IC50 against PARP1 [2] of 17.3 nM.
Consider `Cl.Cl.Nc1ncnc2c1ncn2[C@@H]1O[C@H](C(=O)N2CCN(CC(=O)Nc3cccc4c3CNC4=O)CC2)[C@@H](O)[C@H]1O` [EB-47], for which the “allosteric PARPi type” value at PARP1 [1] is “Type I”.
For `COC(=O)c1cnc(N2CCN(C(=O)c3ccc(-c4nc5c(C(N)=O)cccc5[nH]4)cc3)CC2)nc1` [UKTT15 (6), Methyl 2-(4-(4-(4-carbamoyl-1H-benzo[d]imidazol-2-yl)benzoyl)piperazin-1-yl)pyrimidine-5-carboxylate], the midpoint of inhibition on PARP1 [2], the IC50, lay at 2.8 nM. Also, the “allosteric PARPi type” value at PARP1 [1] was “Type I”.
In the case of `C[C@]1(c2nc3c(C(N)=O)cccc3[nH]2)CCCN1` [Veliparib], the “allosteric PARPi type” value on PARP1 [1] is reported as “Type III”.
Turning to `NC(=O)c1cccc2cn(-c3ccc([C@@H]4CCCNC4)cc3)nc12` [niraparib], at PARP1 [1], the “allosteric PARPi type” value is “Type III”.
Consider `CNCc1ccc(-c2[nH]c3cc(F)cc4c3c2CCNC4=O)cc1` [rucaparib], for which the “allosteric PARPi type” value on PARP1 [1] is listed as “Type III”.

B1: 5-bp DNA duplex (dsDNA)
DNA 1: CGACG
DNA 2: CGTCG
Consider B1, for which the binding result in series [3] is reported as “binds”.

B2: 18-bp DNA duplex (dsDNA)
DNA 1: GGGTTGCGGCCGCTTGGG
DNA 2: CCCAAGCGGCCGCAACCC
In the case of B2, the equilibrium dissociation constant (Kd) (commonly the concentration at which binding is half-saturated) was 47.7 ± 5.4 nM in the series with PARP1 WT [4]; 62.2 ± 14.6 nM with PARP1 WT [5]; 82.1 ± 1.8 nM with PARP1 WT [6]; 61.9 ± 14.4 nM in the series with PARP1 WT [7]; 117 ± 16.8 nM in the series with PARP1 WT [8]; 41.7 ± 11.4 nM with PARP1 WT [9]. For the same molecule, the dissociation constant Kd with PARP1 WT [10] was 52.3 ± 3.2 nM; with PARP1 WT [11] it was 61.7 ± 25.3 nM; with PARP1 WT [12], 112 ± 31.2 nM; with PARP1 WT [13], 11.8 ± 4.7 nM; in the series with PARP1 WT [14] it was 210 ± 25 nM; with PARP1 WT [15], 29 ± 5.2 nM. In the series with PARP1 WT [16], this molecule had a Kd of 4.5 ± 1.7 nM.

Values taken from article PMC11070930 (The Biochemical journal, 2024).
